Data on four compounds can be found in paper PMC3177827 (PLoS ONE, 2011).

Where a SMILES comes first, the peptide text is derived from it. The star is where a group is joined. pNA = O=[N+]([O-])c1ccc(N*)cc1; Cbz = O=C(OCc1ccccc1)*

Data set [1] is described as follows: WSA-8 cells (OD620 1.2) in 20 mM Tris solution, pH 2.0. The settings on record: Rothia aeria (strain WSA-8), up to 72 h.
Data set [2] is described as follows: bacterial suspension in saliva ion buffer (OD620 1.2). As to conditions: up to 24 h.
In the next data set the test system is pepsin. The data set is described as follows: Degradation of 33-mer and 26-mer gliadin peptides by pepsin. It counts as in vitro ADME. The settings on record: peptide 250 µg/ml; pepsin 1 µg/ml in 0.1 M HCl, pH 1.0; sampled at t = 0 and 24 h; RP-HPLC. The procedure:
(§1) Synthetic highly immunogenic peptides derived from α2-gliadin ([…]; 33-mer) or γ-gliadin ([…]; 26-mer) were synthesized at a purity of 95% (21st Century Biochemicals, Marlboro, MA), dissolved in deionized water to 10 mg/ml. The peptides (final concentration 250 µg/ml) were incubated with trypsin or chymotrypsin (1 µg/ml in 50 mM ammonium bicarbonate, pH 8.0), or pepsin (1 µg/ml in 0.1 M HCl, pH 1.0) or strain WSA-8 (R. aeria) in saliva ion buffer (OD620 1.2, pH 7.0). Degradation of the 33-mer and 26-mer over time was monitored in 100 µl aliquots by RP-HPLC as reported previously.
(§2) The 100 µl sample aliquots were mixed with 900 µl buffer A containing 0.1% (v/v) trifluoroacetic acid (TFA), filtered and analyzed by RP-HPLC using a HPLC Model 715 (Gilson, Middleton, WI) and a C-18 column (TSK-GEL 5 µm, ODS-120T, 4.6×250 mm, TOSOHaas, Montgomeryville, PA). Peptides were eluted using a linear gradient from 0% to 55% buffer B containing 80% (v/v) acetonitrile and 0.1% (v/v) TFA over a 75 min time interval at a flow rate of 1.0 ml/min. The eluate was monitored at 219 and 230 nm and eluting fractions were collected using peak width and peak sensitivity settings of 1.2 and 5, respectively (Unipoint version 3.3, Gilson). […]
(§3) Figure 4 Degradation of the 33-mer by mammalian enzymes and by enzymes associated with R. aeria. […] Degradation of the 33-mer in incubation aliquots was monitored by RP-HPLC. […]

Another data set relates to trypsin. The data set is described as follows: Degradation of 33-mer and 26-mer gliadin peptides by trypsin. As to conditions: peptide 250 µg/ml; trypsin 1 µg/ml in 50 mM ammonium bicarbonate, pH 8.0; sampled at t = 0 and 24 h; RP-HPLC. Format: in vitro ADME. The procedure: as §1, §2, §3
For a further data set, the system named is chymotrypsin. The data set is described as follows: Degradation of 33-mer and 26-mer gliadin peptides by chymotrypsin. It counts as in vitro ADME. The settings on record: peptide 250 µg/ml; chymotrypsin 1 µg/ml in 50 mM ammonium bicarbonate, pH 8.0; sampled at t = 0 and 24 h; RP-HPLC. Here is the method: as §1, §2, §3
The test system of data set [3] is WSA-8 (R. aeria). Description: Degradation and fragment analysis of 33-mer and 26-mer in a suspension of WSA-8. Format: in vitro ADME, Rothia aeria. The settings on record: peptide 250 µg/ml; WSA-8 (R. aeria) in saliva ion buffer, OD620 1.2, pH 7.0; sampled at 0, 30, 60, 120 min; RP-HPLC. Here is the method: as §1
The 100 µl sample aliquots were mixed with 900 µl buffer A containing 0.1% (v/v) trifluoroacetic acid (TFA), filtered and analyzed by RP-HPLC using a HPLC Model 715 (Gilson, Middleton, WI) and a C-18 column (TSK-GEL 5 µm, ODS-120T, 4.6×250 mm, TOSOHaas, Montgomeryville, PA). […] The eluate was monitored at 219 and 230 nm and eluting fractions were collected using peak width and peak sensitivity settings of 1.2 and 5, respectively (Unipoint version 3.3, Gilson). […]
All dried peaks were dissolved in 25 µl of a solution containing 5% acetonitrile and 0.1% formic acid. […] The raw MS/MS data of the peptide ions in each of the analyzed samples were searched against an in-house generated database containing the sequences of the 33-mer and the 26-mer using SEQUEST software (Bioworks Browser 3.3.1, Thermo-Finnigan). […]

Data set [4] has as its system WSA-8 (R. aeria). Description: pH activity analysis: Z-YPQ-pNA hydrolysis by WSA-8 cells. Format: biochemical, Rothia aeria. The settings on record: Z-YPQ-pNA 200 µM, WSA-8 cells OD620 1.2, 20 mM Tris, 405 nm, activity not reactivated at neutral pH. Here is the method: Figure 6 Gliadin zymography (6%) of Rothia strains and pH activity analysis. In the zymogram gels 150 µl cells (OD620 5.0) were applied per lane. Lane 1, strain WSA-2B (R. mucilaginosa); lanes 2: strain WSA-8 (R. aeria), lane 3: strain WSA-26 (R. mucilaginosa); lane 4: strain ATCC 25296 (R. mucilaginosa). A, gel developed at pH 7.0; B, gel developed at pH 3.0. C, Z-YPQ-pNA (200 µM) hydrolysis by WSA-8 cells (OD620 1.2) measured in 20 mM Tris solutions ranging in pH from 2.0 to 10.0. Measurements at 405 nm were carried out hourly for the first 6 hours and after 24 h and 72 h.
To determine protease activities under conditions that are representative of the stomach, the zymogram gel with the four Rothia strains was also developed at pH 3.0 (Figure 6B). […] To further investigate the pH range over which strain R. aeria was active, Z-YPQ-pNA substrate hydrolysis was measured in solutions ranging in pH from 2.0 to 10.0. […] Substrate hydrolysis rates decreased in parallel with decreasing pH values from pH 7.0 to pH 4.0. At pH 3.0 substrate cleavage was noted only after 72 h incubation. The slow but noticeable enzyme activity of R. aeria at this pH value is consistent with the gliadin zymogram results presented in Figure 6B.

As to Cbz-Tyr-Pro-Gln-pNA, the not cleaved entry in data set [1] is “no Z-YPQ-pNA hydrolysis could be observed”; in data set [2] (Bifidobacterium dentium HOT-588 (strain PAN-5)), “− after 24 h”; in data set [2] (Bifidobacterium dentium HOT-588 (strain PAN-8)), “− after 24 h”; in data set [2] (Bifidobacterium dentium HOT-588 (strain PAN-18)), “− after 24 h”; in data set [2] (Bifidobacterium dentium HOT-588 (strain PAN-19)) it was “− after 24 h”; in data set [2] (Bifidobacterium dentium HOT-588 (strain PAN-23)), “− after 24 h”. Further, the not cleaved entry was “− after 24 h” in data set [2] (Bifidobacterium longum HOT-B54 (strain WSAN-14)); “− after 24 h” in data set [2] (Bifidobacterium longum HOT-B54 (strain WSAN-16)); “− after 24 h” in data set [2] (Bifidobacterium longum HOT-B54 (strain WSAN-24)); “− (inactive) after 24 h” in data set [2] (Staphylococcus epidermidis HOT-601 (strain WSA-10)); “− after 24 h” in data set [2] (Streptococcus pneumoniae HOT-734 (strain PAN-0)); “− after 24 h” in data set [2] (Veilonella atypica HOT-524 (strain WSAN-25)).

As for `CC(C)C[C@H](NC(=O)[C@@H](N)Cc1ccccc1)C(=O)N[C@@H](CCC(N)=O)C(=O)N1CCC[C@H]1C(=O)N[C@@H](CCC(N)=O)C(=O)N[C@@H](CCC(N)=O)C(=O)N1CCC[C@H]1C(=O)N[C@@H](Cc1ccccc1)C(=O)N1CCC[C@H]1C(=O)N[C@@H](CCC(N)=O)C(=O)N[C@@H](CCC(N)=O)C(=O)N1CCC[C@H]1C(=O)N[C@@H](CCC(N)=O)C(=O)N[C@@H](CCC(N)=O)C(=O)N1CCC[C@H]1C(=O)N[C@@H](Cc1ccc(O)cc1)C(=O)N1CCC[C@H]1C(=O)N[C@@H](CCC(N)=O)C(=O)N[C@@H](CCC(N)=O)C(=O)N1CCC[C@H]1C(=O)N[C@@H](CCC(N)=O)C(=O)N[C@@H](CCC(N)=O)C(=O)N1CCC[C@H]1C(=O)N[C@@H](Cc1ccccc1)C(=O)N1CCC[C@H]1C(=O)N[C@@H](CCC(N)=O)C(=O)O` [26-mer] (H-FLQPQQPFPQQPQQPYPQQPQQPFPQ-OH), the degradation by pepsin result with pepsin is “resistant to degradation”. The degradation by trypsin result in the data set with trypsin is “resistant to degradation”. For the same compound, the degradation by chymotrypsin entry in the data set with chymotrypsin is on record as “resistant to degradation”. Further, in the data set with WSA-8 (R. aeria) [3], the “degradation in a cell suspension of WSA-8 over the 2 h time interval” value is “sensitive to proteolytic degradation”.

For the compound “benzyloxycarbonyl-YPQ-paranitroanilide [Z-YPQ-pNA]”, in the data set on WSA-8 (R. aeria) [4], the “substrate hydrolysis at pH 2.0” value is on record as “no Z-YPQ-pNA hydrolysis could be observed”.

Consider `CC(C)C[C@H](NC(=O)[C@H](CCC(N)=O)NC(=O)[C@@H](N)CC(C)C)C(=O)N[C@@H](CCC(N)=O)C(=O)N1CCC[C@H]1C(=O)N[C@@H](Cc1ccccc1)C(=O)N1CCC[C@H]1C(=O)N[C@@H](CCC(N)=O)C(=O)N1CCC[C@H]1C(=O)N[C@@H](CCC(N)=O)C(=O)N[C@@H](CC(C)C)C(=O)N1CCC[C@H]1C(=O)N[C@@H](Cc1ccc(O)cc1)C(=O)N1CCC[C@H]1C(=O)N[C@@H](CCC(N)=O)C(=O)N1CCC[C@H]1C(=O)N[C@@H](CCC(N)=O)C(=O)N[C@@H](CC(C)C)C(=O)N1CCC[C@H]1C(=O)N[C@@H](Cc1ccc(O)cc1)C(=O)N1CCC[C@H]1C(=O)N[C@@H](CCC(N)=O)C(=O)N1CCC[C@H]1C(=O)N[C@@H](CCC(N)=O)C(=O)N[C@@H](CC(C)C)C(=O)N1CCC[C@H]1C(=O)N[C@@H](Cc1ccc(O)cc1)C(=O)N1CCC[C@H]1C(=O)N[C@@H](CCC(N)=O)C(=O)N1CCC[C@H]1C(=O)N[C@@H](CCC(N)=O)C(=O)N1CCC[C@H]1C(=O)N[C@@H](Cc1ccccc1)C(=O)O` [33-mer] (H-LQLQPFPQPQLPYPQPQLPYPQPQLPYPQPQPF-OH), for which the degradation by pepsin result with pepsin was “resistant to degradation”. The degradation by trypsin entry in the data set on trypsin is “resistant to degradation”. The degradation by chymotrypsin entry in the data set with chymotrypsin is given as “resistant to degradation”.
